Values joined by “and” are separate entries in the source; they are usually repeats but may differ in a detail not shown here. Identical values can stand only once. Counter-ions that a name gives are not always drawn. Marks after values point to notes of the source that are not given here.
How the values were obtained:
[1] = Toxicity: testis weight/body weight after 106 days of drug treated feed; details: for Mean values for testes: Left, % body wt / Mean values for testes: Right, % body wt.: male CD-1 mice, 8-mice groups, drug treated feed 106 days (300 ppm first 79 days, 600 ppm days 80-106); for Mean values for testes: Left, % body wt: control 0.30; for Mean values for testes: Right, % body wt.: control 0.31; for Testis damage / observable pathology: organs examined for pathology after 106 days of drug treated feed; for Decrease in testis weight/body weight: after 106 days of drug treated feed
Text: Male CD-1 mice were fed drug treated feed for 106 days. For the first 79 days the drug level was 300 ppm and then 600 ppm for days 80-106. The animals were then sacrificed and the organs were both weighed and examined for pathology.

[2] = tested on: Plasmodium berghei (KBG-173 strain); assay: In vivo antimalarial activity, modified Thompson Test (Table II); set-up: species or system Charles River CD-1 mice; details: bid on days 3, 4, 5; for Average days Survival: 31 day experiment; for 6 day Parasetemia: % of red blood cells infected
Method: In vivo^1 antimalarial activity was tested in male or female Charles River CD-1 mice that were 4-5 weeks old and weighed 20-25 g. They were housed in groups of 3 or 4 in standard plastic cages with wire tops, bed-o-cob® bedding, 12 hr/day of light, and maintained at 75° F. They were fed a standard Ralston Purina mouse chow and the cages and water bottles were changed twice a week. Test compounds were ground in a mortar and pestle and diluted with enough vehicle to give a volume of 10 mL/kg of mouse weight. The oral doses were prepared in 0.5% hydroxyethylcellulose-0.1% Tween-80. The amount of drug was calculated on the free base weight. The mice were infected intraperitoneally on day 0 with 5×10^4 erythrocytes parasitized with Plasmodium berghei (KBG-173 strain) from a donor mouse having a parasitemia between 5-10%. On days 3, 4, 5 the test compounds were administered bid, spaced 6 h apart, to mice. Smears were made from tail blood on day +6 and twice a week thereafter. The smears were stained with Geimsa and examined microscopically. Parasitemias are reported as the % of the red blood cells that are infected. On day 6 the (suppression of) parasitemias of treated animals may be compared to the parasitemias of infected non-treated controls, but these infected non-treated controls die on days 7-12. Activity was also measured by survival. Full activity is defined as all animals living at day 31. Partial activity is defined as days of increased survival versus the infected non-treated controls.
^1This in vivo model is a modification of the Thompson Test. For further description see Ager, A. L., Jr. Rodent Malaria Models. In Handbook of Experimental Pharmacology: Antimalarial Drugs. I. 68/1; Peters, W., Richards, W. H. G., Eds.: Springer-Verlag: Berlin, 1984, pp. 231-33.

Plasmodium berghei = assay: Comparison of antimalarial activity of analogs of PS-15 in infected mice (Table III); format: in vivo; details: orally bid on days 3, 4, 5 in HEC Tween, infection control 08.0
Text: Mice were infected with Plasmodium berghei on day 0 and the drugs were mixed in HEC Tween and given orally bid on days 3, 4, and 5 post infection. Blood films were taken on day 6 and twice weekly thereafter until day 30.

[3] = in vivo
[4] = tested on: drug-resistant clones of P. falciparum; details: cited from earlier work; for In vitro activity relative to comparator: drug-resistant clones of P. falciparum
[5] = tested on: multidrug-resistant P. falciparum; details: administered orally to Aotus monkeys; cited from earlier work
P. berghei = details: administered orally to mice infected with P. berghei; cited from earlier work
[6] = cited from earlier work

In the case of `CC(C)NC(=N)NC(=N)NOCCCOc1ccc(Cl)cc1Cl` [2,4-Dichloro], the “Mean values for testes: Left, % body wt” value [1] is reported as 0.19 % body wt and the “Mean values for testes: Right, % body wt.” value (from here on “Mean values … % body wt.”) [1] is reported as 0.20 % body wt.

With `CC(C)NC(=N)NC(=N)NOCCCOc1ccc(F)c(F)c1` [3,4-Difluoro] the “Mean values for testes: Left, % body wt” value [1] was 0.21 % body wt and the “Mean values … % body wt.” value [1] was 0.23 % body wt.

With `CC(C)NC(=N)NC(=N)NOCCCOc1cc(Cl)c(Cl)cc1Cl` [PS-15, N-[3-(2,4,5-trichlorophenoxy)propyloxy]-N′-(1-methylethyl)imidodicarbonimidediamide hydrochloride, reference compound] the “Mean values for testes: Left, % body wt” value [1] was 0.21 % body wt, the “Mean values … % body wt.” value [1] was 0.22 % body wt and the “Testis damage / observable pathology” value [1] was “Testis damage was found”. The “Average days Survival” value ([2]; 16 mg/kg oral, hydrochloride) was 14.1 days and 15.1 days and 14.6 days and 13.6 days, the “6 day Parasetemia” value ([2]; 16 mg/kg oral, hydrochloride) was 1.8% and 2.7% and 1.94% and 1.1% and the “Average days Survival” value ([2]; 32 mg/kg oral, hydrochloride) was 15.9 days and 17.8 days and 12.8 days and 21.8 days. The “6 day Parasetemia” value ([2]; 32 mg/kg oral, hydrochloride) was 0% and 0.006% and 0.01%, the “Average days Survival” value ([2]; 64 mg/kg oral, hydrochloride) was >24.7 days and >31* days and the “6 day Parasetemia” value ([2]; 64 mg/kg oral) was 0%. The “AVG. DAY OF DEATH” value (Plasmodium berghei; 16 MK/KG/DAY) was 15.1 days, the “AVG. DAY OF DEATH” value (Plasmodium berghei; 32 MK/KG/DAY) was 15.7 days and the “AVG. DAY OF DEATH” value (Plasmodium berghei; 64 MK/KG/DAY) was 17.0 days. For the same compound, the Testicular toxicity [3] was “caused testicular toxicity”, the “Activity against drug-resistant Plasmodium falciparum” value ([4]; as described by Canfield et al. 1993) was “significant activity” and the “In vitro activity relative to comparator” value [4] was “more active than proguanil”. For the same compound, the “Cross-resistance with other inhibitors of DHFR” value ([4]; versus pyrimethamine and cycloguanil) was “not cross-resistant”, the “Activity relative to proguanil or WR99210” value [5] was “more active than either proquanil or WR99210” and the “Activity relative to proguanil” value (P. berghei) was “more active”. The “Toxicity relative to proguanil” value (P. berghei) was “less toxic than proguanil” and the Metabolism in vivo [6] was “metabolized in vivo to WR99210”.

In the case of `CC(C)NC(=N)NC(=N)NOCCCOc1ccc(Cl)c(Cl)c1` [PS-26, 1-[3-(3,4-dichlorophenoxy)propyloxy]-5-isopropylbiguanide(hemisuccinate)], the “Decrease in testis weight/body weight” value [1] is reported as “no decrease in testis weight/body weight”, the “Mean values for testes: Left, % body wt” value [1] is reported as 0.29 % body wt and the “Mean values … % body wt.” value [1] is reported as 0.32 % body wt. For the same compound, the “Testis damage / observable pathology” value [1] was “minimal to no observable pathology”, the “Average days Survival” value ([2]; 16 mg/kg oral) was 15.7 days and 16.6 days and 16.0 days and the “6 day Parasetemia” value ([2]; 16 mg/kg oral) was 0% and 0.006%. The “Average days Survival” value ([2]; 32 mg/kg oral) was >29.3 days and >31 days, the “6 day Parasetemia” value ([2]; 32 mg/kg oral) was 0% and the “Average days Survival” value ([2]; 64 mg/kg oral) was >31* days. For the same compound, the “6 day Parasetemia” value ([2]; 64 mg/kg oral) was 0%, the “AVG. DAY OF DEATH” value (Plasmodium berghei; 16 MK/KG/DAY) was 16.6 days and the “AVG. DAY OF DEATH” value (Plasmodium berghei; 32 MK/KG/DAY) was 15.5 days.

With `CC(C)NC(=N)NC(=N)NOCCCOc1ccc(Cl)cc1` [PS-33, 1-[3-(4-chlorophenoxy)propyloxy]-5-isopropylbiguanide(hemisuccinate)] the “Decrease in testis weight/body weight” value [1] was “no decrease in testis weight/body weight”, the “Mean values for testes: Left, % body wt” value [1] was 0.27 % body wt and the “Mean values … % body wt.” value [1] was 0.36 % body wt. For the same compound, the “Testis damage / observable pathology” value [1] was “minimal to no observable pathology”, the “Average days Survival” value ([2]; 16 mg/kg oral) was 14.1 days and 15.1 days and 14.6 days and 13.6 days and the “6 day Parasetemia” value ([2]; 16 mg/kg oral) was 1.8% and 2.7% and 1.94% and 1.1%. The “Average days Survival” value ([2]; 32 mg/kg oral) was 21.8 days and 15.9 days and 17.8 days and 12.8 days, the “6 day Parasetemia” value ([2]; 32 mg/kg oral) was 0.01% and 0% and 0.006% and the “Average days Survival” value ([2]; 64 mg/kg oral) was >31* days and >24.7 days. For the same compound, the “6 day Parasetemia” value ([2]; 64 mg/kg oral) was 0%, the “AVG. DAY OF DEATH” value (Plasmodium berghei; 16 MK/KG/DAY) was 16.0 days and the “AVG. DAY OF DEATH” value (Plasmodium berghei; 32 MK/KG/DAY) was 19.5 days. For the same compound, the “AVG. DAY OF DEATH” value (Plasmodium berghei; 64 MK/KG/DAY) was 29.0 days.

In the case of `CC1(C)N=C(N)N=C(N)N1OCCCOc1cc(Cl)c(Cl)cc1Cl` [WR99210], the “In vitro activity relative to comparator” value [4] is listed as “ten thousand times more active than the proquanil metabolite cycloguanil”.
